The record followed here is paper PMC5725832, “Evaluation of the effect of D-amino acid incorporation into amyloid-reactive peptides” (Journal of Translational Medicine, 2017).

Data set [1] can be described thus: Circular dichroism, heparin-induced coil-to-helix transition (ellipticity at 222 nm). As to conditions: CD, peptide 0.05 mg/mL, 2.9 mL sample, 1 cm path; titration of low molecular weight heparin (enoxaparin) up to 1.5 mg; data collected in triplicate. The format is physicochemical. The protocol:
CD spectra were obtained for all peptides (0.05 mg/mL in PBS) using a DSM 1000 CD instrument (Olis Inc., Bogart, Georgia) with a peptide sample volume of 2.9 mL and a 1 cm cuvette path length. Data were collected in triplicate over the 190–250 nm wavelength range with 1 nm increments. Increasing amounts of low molecular weight heparin (Enoxaparin sodium, Sanofi, Bridgewater, NJ) up to 1.5 mg was added to each peptide to induce secondary structure transitions. All data were corrected for background by subtraction of a PBS or PBS with enoxaparin CD spectrum. Mean residue ellipticity [Θ] was calculated according to: Θ *(MW/no. AA)/(10 *conc. *l) where: Θ is ellipticity (millidegrees); MW is the molecular weight of the peptide (3356.8 Da); no. AA, is the number of amino acid residues, (31); conc. is the peptide concentration (mg/mL), and l, is the cuvette path length (cm).

For data set [2] the following is noted: mouse, in vivo, iv. The protocol: Peptides (20–40 μg) were radiolabeled with iodine-125 (^125I; Perkin Elmer, Waltham, MA) as previously described. Briefly, ~ 2 mCi of ^125I in buffered sodium phosphate pH 7.6 was mixed with peptide and 20 μg chloramine T in a volume of 10 µL water for 1 min. The reaction was quenched using 20 μg sodium metabisulphite in 10 µL water. Radiolabeled product was separated from free isotope by gel filtration chromatography using a Sephadex G-25 size-exclusion matrix (PD10; GE Healthcare) equilibrated with 0.1% gelatin/PBS. Fractions were collected manually and radioactivity in each measured by gamma counting after which the peak fractions were pooled. Radiochemical purity was assessed qualitatively by estimating the free radioiodide from phosphor images (Cyclone Storage Phosphor System, PerkinElmer, Shelton, CT) of SDS-PAGE gels. SPECT/CT imaging was performed as described previously. […] Low energy (^125I; 25–45 keV) gamma photons were detected at each of 60, 16-s projections with 90 mm of bed travel in 1.5 revolutions. […] A small piece of each tissue was weighed in tared vials and radioactivity quantified using an automated gamma counter (1480 Wizard 3 Gamma Counter, Perkin Elmer). The tissue radioactivity data were expressed as % injected dose per gram of tissue (%ID/g). […]

For the substance “aqaYS KAQKAQAKQAKQAQKAQKAQAKQAKQ [^aqap5, 31-residue p5 variant with three D-amino acids at the N-terminus; tested 125I-labeled in vivo]”, in data set [1], the “half maximal value of the heparin-mediated transition in mean residue ellipticity at 222 nm” value amounted to 0.33 mg. Also, the “radioactivity in the kidneys” value in data set [2] is ~ 39 %ID/g.
